Reference: US12624068B2, “Exon skipping by peptide nucleic acid derivatives” (OliPass Corporation, priority 2016, dated 2026)
[C(1O2)] = modified PNA monomer acting as cytosine, C(pOq) type, 1O2; [A(5)] = modified PNA monomer acting as adenine, A(p) type, p=5; [G(5)] = modified PNA monomer acting as guanine, G(p) type, p=5; {Fethoc} = N-terminal Fethoc cap; {NH2} = C-terminal amide

Tests used:
[1] = test system: sodium ion current in rat DRG cells; experiment: CoroNa assay of sodium current in rat L5 DRG neuronal cells; type: cell-based; details: rat L5 DRG cells without L5/L6 ligation, 30 hrs
Procedure: “SCN-ASO 27” was evaluated for its ability to inhibit the sodium ion current in rat DRG (dorsal root ganglion) cells using “CoroNa Green” as follows.
[SNL Surgery by L5/L6 Ligation] In Day 0, 6 weeks old male SD rats were anesthetized with zoletil/rompun. Then the L5 and L6 spinal nerve (left side) were exposed and tightly ligated. The muscle and skin were closed and clipped by due aseptic procedures. The rats were sporadically sensitized by von Frey scoring over a period of 4 weeks.
[Preparation of DRG Neuronal Cells] In Day 31, a rat showing a low von Frey score was sacrificed to extract both the left (ligated side) and the right (non-ligated side) DRG. […]
[ASO Treatment & CoroNa Assay] […] The culture dish was mounted on a fluorescence microscope equipped with a CCD camera to continuously capture the green fluorescent images of the cells. The cells were acutely treated with 10 mM NaCl, and then the changes in the cellular fluorescent intensity were digitally recorded over a period of 300 sec. […] The fluorescence intensities from each individual cell were traced at a resolution of a second. The traces of the intracellular fluorescence intensities from individual cells were averaged using ImageJ program (version 1.50i, NIH), and the average traces are provided in FIGS. 33A and 33B for the cells with “L5/L6 ligation” and without “L5/L6 ligation”, respectively. […]

full-length dystrophin = experiment: IHC of skeletal muscles against full-length dystrophin in mdx mice; type: in vivo
Excerpt: [IHC Evaluation of Skeletal Muscles against Full-length Dystrophin] In Weeks 7, 13 and 21, two animals per group were randomly selected and sacrificed to extract muscle tissues. In Week 30, 3 animals were sacrificed per group.
The muscle tissues sampled in Week 7 were subjected to IHC against the full-length dystrophin by cryosection. The muscle tissues sampled in Weeks 13, 21 and 30 were immunostained by paraffin block. IHC by paraffin block yielded images of better quality than IHC by cryosection.
Muscle samples were subjected to immunostaining in series with a primary antibody targeting the C-terminal of mouse dystrophin (Cat. Number sc-816, Santa Cruz) at 1:100 dilution, with a secondary anti-IgG antibody (Cat Number BA-1100, Vector) at 1:200 dilution, and then with Dylight 594-streptavidin (Cat Number SA-5594, Vector, CA, USA) at 1:200 dilution for red fluorescence tagging. The IHC images were captured on a Zeiss slide scanner (in Weeks 13, 21 and 30) or an Olympus fluorescence microscope (in Week 7). […]
The dystrophin IHC images were subjected to quantification for the full-length dystrophin expression by digitally scoring the intensity of red fluorescence in each individual IHC image using the “ImageJ” program (NIH). Individual fluorescence scores were combined by group and muscle type for statistical evaluation against the wild type negative control group.

[2] = test system: mouse dystrophin pre-mRNA; experiment: Dystrophin nested PCR (Method B) in muscles of mdx mice; type: in vivo; details: skeletal muscles sampled in Week 7
Procedure: The RNA samples obtained in “DMD Example 1” were subjected to a one-step cDNA synthesis using a set of exon-specific primers of [DMD-exon 20_forward: (5'→3') […] NO: 107); and DMD-exon 26_reverse: (5'→3') […] NO: 108)]. The cDNA samples were then analyzed by nested PCR against another set of exon-specific primers of [DMD-exon 20n_forward: (5'→3') […] NO: 109); and DMD-exon 26n_reverse: (5'→3') […] NO: 110)]. [Nested PCR for Exon Skipping (Method B)] Muscle samples were homogenized by grinding in a tube kept on ice, and subjected to total RNA extraction with 1 mL trizol reagent (Invitrogen) per ca 100 mg muscle tissue. The total RNAs were evaluated for exon skipping by nested PCR as described in “DMD Example 2”.

Substance | decrease in fluorescence intensity (CoroNa) ([1]; 1 aM) [%] | decrease in fluorescence intensity (CoroNa) ([1]; 100 zM) | in vivo potency relative to the PMO ASO eteplirsen (30 mg/Kg per week) (full-length dystrophin; 200 pmole/Kg corresponds to ca 1 μg/Kg, different species and exon) | full-length dystrophin expression relative to the WT negative control group (IHC) (full-length dystrophin; mdx mice, 200 pmole/Kg 2× per week, Week 30) [%] | in-frame PCR products of Δexons 21-23 and Δexons 21-24 (nested PCR Method B) [2]
Fethoc-AA(5)G-TG(5)T-A(5)CC(1O2)-TA(5)A-A(5)C-NH2 (AAGTGTACCTAAAC; splice-switching; all peptide nucleic acid (PNA), [A(5)] at 2, 7, 11, 13, [G(5)] at 5, [C(1O2)] at 9, 5' {Fethoc}, 3' {NH2}; peptide nucleic acid written N to C) [SCN-ASO 27] | ~50 | no decrease | – | – | –
Fethoc-A(5)GA-G(6)CC(1O2)-TCA-A(5)AA(5)-T-NH2 (antisense AGAGCCTCAAAAT; Fethoc N-cap, C-terminal amide, chemistry not fully specified) [DMD-ASO 1] | – | – | ~30,000 times | > 80 | detected in muscle samples of the ASO treatment groups
